From ChEMBL document CHEMBL1275506, “Expanded-spectrum beta-lactamase PER-1 in an environmental Aeromonas media isolate from Switzerland” (2008)
≈ marks a conversion by molar mass, not a printed value.

Tests used:
Format in all cases: functional
Aeromonas sp. [1] = assay: Antibacterial activity against Aeromonas sp. isolate A72 by Etest
Escherichia coli [2] = assay: Antibacterial activity against Escherichia coli J53 harboring plasmid pAM carrying beta-lactamase PER-1 by Etest
Escherichia coli [3] = assay: Antibacterial activity against Escherichia coli J53 by Etest
Aeromonas sp. [4] = assay: Antibacterial activity against Aeromonas sp. isolate A72 by Etest in presence of clavulanic acid
Escherichia coli [5] = assay: Antibacterial activity against Escherichia coli J53 harboring plasmid pAM carrying beta-lactamase PER-1 by Etest in presence of clavulanic acid
Escherichia coli [6] = assay: Antibacterial activity against Escherichia coli J53 by Etest in presence of clavulanic acid

SMILES | MIC (Aeromonas sp. [1]) | MIC (Escherichia coli [2]) | MIC (Escherichia coli [3]) | MIC (Aeromonas sp. [4]) | MIC (Escherichia coli [5]) | MIC (Escherichia coli [6])
CC1(C)S[C@@H]2[C@H](NC(=O)[C@H](N)c3ccc(O)cc3)C(=O)N2[C@H]1C(=O)O [AMOXICILLIN] | > 256 µg/mL | > 256 µg/mL | 4 µg/mL (≈ 10.9 µM) | 8 µg/mL | 4 µg/mL | 4 µg/mL
CO/N=C(\C(=O)N[C@@H]1C(=O)N2C(C(=O)[O-])=C(C[N+]3(C)CCCC3)CS[C@H]12)c1csc(N)n1 [CEFEPIME] | 4 µg/mL (≈ 8.32 µM) | 8 µg/mL (≈ 16.6 µM) | – | – | – | –
CO/N=C(\C(=O)N[C@@H]1C(=O)N2C(C(=O)O)=C(COC(C)=O)CS[C@H]12)c1csc(N)n1 [CEFOTAXIME] | > 32 µg/mL | > 32 µg/mL | 0.06 µg/mL (≈ 0.132 µM) | – | – | –
CO[C@@]1(NC(=O)Cc2cccs2)C(=O)N2C(C(=O)O)=C(COC(N)=O)CS[C@@H]21 [CEFOXITIN] | 2 µg/mL (≈ 4.68 µM) | 2 µg/mL (≈ 4.68 µM) | 2 µg/mL (≈ 4.68 µM) | – | – | –
CC(C)(O/N=C(\C(=O)N[C@@H]1C(=O)N2C(C(=O)[O-])=C(C[n+]3ccccc3)CS[C@H]12)c1csc(N)n1)C(=O)O [CEFTAZIDIME] | > 256 µg/mL | > 256 µg/mL | 0.06 µg/mL (≈ 0.11 µM) | – | – | –
CC(=O)OCC1=C(C(=O)O)N2C(=O)[C@@H](NC(=O)Cc3cccs3)[C@H]2SC1 [CEPHALOTHIN] | > 64 µg/mL | > 64 µg/mL | 8 µg/mL (≈ 20.2 µM) | – | – | –
C[C@@H](O)[C@H]1C(=O)N2C(C(=O)O)=C(SCCNC=N)C[C@H]12 [IMIPENEM ANHYDROUS] | 0.25 µg/mL (≈ 0.835 µM) | 0.25 µg/mL (≈ 0.835 µM) | – | – | – | –
CC1(C)S[C@@H]2[C@H](NC(=O)[C@H](C(=O)O)c3ccsc3)C(=O)N2[C@H]1C(=O)O [TICARCILLIN] | > 256 µg/mL | > 256 µg/mL | 4 µg/mL (≈ 10.4 µM) | 128 µg/mL | 8 µg/mL | 4 µg/mL
